According to the METLIN SMRT retention time set (Domingo-Almenara et al. 2019):

Assay: gradient 5% acetonitrile 3 min, to 50% in 2 min, to 85% in 15 min, held 3 min, 100 µL/min
Conditions: column: Zorbax Extend-C18 2.1 x 50 mm; eluents: water / acetonitrile, 0.1% formic acid
Method in brief: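 The mobile phases were water and acetonitrile, each with 0.1% formic acid, pumped at 100 μL/min through a Zorbax Extend-C18 column (2.1 × 50 mm, 1.8 μm). Pure standards were injected as mixtures of ~100 molecules and detected by a quadrupole time-of-flight mass spectrometer in positive and negative ionization mode. Retention time came from computationally picked adduct peaks, each inspected by hand.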

Row | RP-LC retention time [s] | Compound
1 | 641 | CC1CCCCN1CCNC(=O)CCCn1c(=O)c2cccn2c2ccc(F)cc21 (stereo not given)
2 | 650 | CC(C)(C)C(O)CCNC(=O)C(=O)Nc1cccc(N2CCCCC2=O)c1 (stereo not given)
3 | 874 | COc1cc2c(cc1CNC(=O)COc1ccc(F)cc1)OCCCO2
4 | 528 | Cc1cncn(CC(=O)N2CCN(S(C)(=O)=O)CC2)c1=O
5 | 676 | O=C1NCCCn2cc(S(=O)(=O)Nc3ccc(F)c(F)c3)cc21
6 | 852 | CCOc1ccc(N(CC)C(=O)C(=O)c2c[nH]c3ccccc23)cc1
7 | 618 | Cc1ccc(C)c(NC(=O)CSc2nncn2C)c1
8 | 631 | O=C(Nc1ccc(-c2nnc3n2CCCC3)cc1)c1ccsc1
9 | 824 | Cc1ccsc1CCNC(=O)Cn1nc(C(=O)N2CCCC2)c2ccccc21
10 | 704 | O=C(CCc1c[nH]c2ccccc12)Nc1ccc(-c2nnc3n2CCCC3)cc1
11 | 575 | CCC(=O)NCc1nc2c(n1CC)CN(S(=O)(=O)c1ccc(F)cc1)CC2
12 | 710 | CC(C)(C)NC(=O)c1ccc(-n2cc(CNC(=O)C3CCC3)cn2)cc1
13 | 1130 | CCc1nc(-c2csc(S(=O)(=O)N3CCCC(C(=O)Nc4cc(Cl)ccc4C)C3)c2)no1 (stereo not given)
14 | 783 | CC(=O)N(Cc1nn(C)c2c1CN(S(=O)(=O)c1cccc(Cl)c1)CC2)c1ccccc1
15 | 829 | COc1ccc(C(=O)Nc2ccc(N3CCN(C4CCCC4)C3=O)nc2)c(OC)c1
16 | 845 | O=C(Cc1cccs1)Nc1nnc(-c2ccccc2Cl)s1
17 | 932 | COc1ccc(-c2ccnn2-c2ccc(SCC(=O)NC(C)C)nn2)cc1
18 | 868 | Cn1c(=O)n(C)c2cc(Oc3ccccc3)c(NS(=O)(=O)c3ccc(F)cc3)cc21
19 | 796 | CN1CCN(c2cc(-c3nc(-c4ccccc4)no3)c3ccccc3n2)CC1
20 | 622 | COc1ccc(CC(=O)NCc2c(C)nc3sc(C)nn23)c(Cl)c1
21 | 1050 | Cc1cc(NC(=O)C2CCCN(c3nc4ccsc4c(=O)n3Cc3ccc(F)cc3)C2)ccc1F (stereo not given)
22 | 578 | CC1CCCCN1CCNC(=O)C1CC(=O)N(c2ccc3c(c2)CCN3C(=O)C2CC2)C1 (stereo not given)
23 | 639 | COc1ccc(CCC(=O)NCC(=O)Nc2nc3ccccc3[nH]2)cc1

Row | RP-LC retention time [s] | Compound
24 | 839 | CCOc1ccc(NC(=O)COc2cc(C)nc(N3CCN(c4ccccc4)CC3)n2)cc1
25 | 707 | CCN1CCn2c(nc3cc(C(=O)NCc4ccccc4Br)ccc32)C1=O
26 | 1050 | CC1(C)CC2CC(C)(CN2c2nc(-c3ccc([N+](=O)[O-])cc3)nc3ccccc23)C1 (stereo not given)
27 | 720 | Cc1ccc(NC(=O)c2cn3c(n2)CCCC3)c(F)c1
28 | 753 | O=C(c1cccc2[nH]cc(CN3CCOCC3)c12)N1CCN(c2ccc(Cl)cc2)CC1
29 | 970 | COC(=O)c1cc(OCC(=O)Nc2cc(Cl)ccc2OC)c2cc(OC)ccc2n1
30 | 568 | Cc1ccccc1Nc1nc(N)nc(CN2CCN(c3ccccn3)CC2)n1
31 | 733 | COc1ccc(CC(=O)NC(C(=O)Nc2nc3ccccc3[nH]2)C(C)C)cc1Cl (stereo not given)
32 | 910 | Clc1ccccc1/C=C/c1ccnc2ccccc12
33 | 766 | CCc1nc(-c2csc(S(=O)(=O)N3CCC(C(=O)NC4CC4)CC3)c2)no1
34 | 608 | COc1ccccc1N1CCN(CCNS(=O)(=O)c2ccc(F)c(C)c2)CC1
35 | 1030 | Cc1ccc(NC(=O)CCc2nc(CSc3nnc(-c4ccccc4)o3)no2)cc1Cl
36 | 894 | Cc1cccc(-n2nc3c(c2-n2cccc2)CN(C(=O)c2snnc2C)C3)c1
37 | 648 | COc1ccc(CNC(=O)Cc2csc3nc(-c4ccc(OC)c(OC)c4)cn23)cc1OC
38 | 574 | CSc1ccccc1CN1CCC(CNC(=O)C(=O)NCC(F)(F)F)CC1
39 | 640 | COc1ccccc1C(=O)NCCc1c[nH]c2ccc(Cl)cc12
40 | 871 | O=C(NCCn1ccc2ccccc21)C(=O)c1cn(CC(=O)N2CCOCC2)c2ccccc12
41 | 858 | CCN1c2cc(Cl)ccc2C(=O)NC12CCN(C(=O)Nc1ccccc1OC)CC2
42 | 932 | CCC(C)c1c(N)n(S(=O)(=O)c2ccc(C)cc2)oc1=O (stereo not given)
43 | 1310 | CCCN(C(=O)Cc1ccc(OC)c(OC)c1)c1nc(-c2ccc(C)cc2)cs1
44 | 997 | O=C(NC1CCCC1)N1CCN(c2nc3ccccc3n(Cc3ccccc3)c2=O)CC1
45 | 856 | CCc1noc(NC(C)=O)c1-c1ccc(C)c(S(=O)(=O)NCCC(C)C)c1
46 | 841 | COc1cc2oc3cc(C)oc(=O)c3c2cc1OC

Row | RP-LC retention time [s] | Compound
47 | 862 | O=S1(=O)N=CN(c2ccc3c(c2)CCC3)c2ncccc21
48 | 1110 | CC(C)(C)C(=O)Nc1ccc(-c2nc(-c3ccccc3)co2)cc1
49 | 829 | O=C(c1ccc(OCC2CCCN2C(=O)CC2CCCCC2)cc1)N1CCOCC1 (stereo not given)
50 | 569 | CCN1CCCC1CN(CCC(=O)N1CCNCC1)C(=O)c1ccc(C(F)(F)F)cc1 (stereo not given)
51 | 663 | O=C(Cn1cnc2nc(N3CCCC(C(=O)NC4CC4)C3)sc2c1=O)Nc1ccccc1 (stereo not given)
52 | 558 | COC[C@@H]1CN(Cc2c(C)n[nH]c2C)C[C@H]1c1ccccn1
53 | 745 | O=C(NCc1ccccc1F)C1CC(=O)N(c2ccc3c(c2)CCN3C(=O)C2CC2)C1 (stereo not given)
54 | 699 | O=C(c1cn2c(n1)COCC2)N1CCN(c2ccc(Cl)cc2)CC1
55 | 859 | Cc1ccc(-c2cn3c(CC(=O)NCc4ccccc4C)csc3n2)cc1C
56 | 741 | Cc1cc(C)c(S(=O)(=O)Nc2ccc(-c3ccc4nnc(C)n4n3)cc2)cc1C
57 | 609 | O=C(NCc1ccccc1Cl)c1ccc(=O)n(CCN2CCOCC2)c1
58 | 966 | CCc1csc(-c2ccc(N3CCN(C(=O)c4nn(C)c5ccccc45)CC3)nc2)n1
59 | 722 | CN1c2ccccc2C(=O)NC12CCN(C(=O)NCc1cccc(F)c1)CC2
60 | 762 | Cc1ccc(C(=O)N2CCN(c3nnc4ccc(C(F)(F)F)cn34)CC2)s1
61 | 870 | O=C(C1CC1)N1CCc2sc(S(=O)(=O)Nc3ccc(F)cc3Cl)cc2C1
62 | 580 | CCN1CCN(C(=O)C2CCc3sc(C(=O)N4CCCC4)cc3C2)CC1 (stereo not given)
63 | 846 | COc1ccc(C(=O)COC(=O)c2cccs2)cc1
64 | 775 | CCS(=O)(=O)N1CCc2c(c(CN(C(=O)c3ccccc3)c3ccccc3)nn2C)C1
65 | 719 | COc1cc(NC(=O)CSC2CCc3ccccc3NC2=O)cc(OC)c1OC (stereo not given)
66 | 764 | CC(=O)N1CCc2ccccc2C1C(=O)NCc1cc(F)cc(F)c1 (stereo not given)
67 | 704 | O=C(Cc1c[nH]c2ccccc12)N1CC(n2cc(COCC3CC3)nn2)C1
68 | 693 | CC(C)Cn1c(=O)c2nscc2n(CC(=O)NC(C)C)c1=O
69 | 1130 | CCc1nc(-c2cc(S(=O)(=O)Nc3ccccc3Br)c(C)s2)cs1

Row | RP-LC retention time [s] | Compound
70 | 891 | COc1ccc(CNC(=O)C2CN(S(=O)(=O)C3CC3)CC23CCCCC3)cc1 (stereo not given)
71 | 724 | O=C(CCc1c(-c2cccc(Cl)c2)nc2ccccn12)N1CCN(c2ccc(F)cc2)CC1
72 | 1250 | Cc1nc(-c2ccc(-c3noc(-c4cncc(Br)c4)n3)cc2)cs1
73 | 888 | c1ccc(-c2nc3cc(-c4noc(-c5ccc6nc[nH]c6c5)n4)ccc3o2)cc1
74 | 605 | CC1CCCCN1CCCNC(=O)CC1CCN(C(=O)C2CCCCC2)CC1 (stereo not given)
75 | 599 | O=C(NCc1ccc(F)cc1)c1ccc(=O)n(CCN2CCOCC2)c1
76 | 922 | O=C(NC1CCCCCC1)c1ccc2ccnc(N3CCN(c4ccccc4)CC3)c2c1
77 | 954 | Cc1ccc(-c2cn(CC(=O)Nc3cc(C)ccc3C)c(=O)o2)cc1
78 | 698 | Cc1cc(NS(=O)(=O)c2cc3n(c2)CCN(C)C3=O)ccc1F
79 | 904 | CC1CCN(C(=O)C2=NN(Cc3nc(C4CC4)no3)c3ccccc3S2(=O)=O)CC1
80 | 782 | CCOC(=O)c1cnc2c(OC)cccc2c1NCC1COc2ccccc2O1 (stereo not given)
81 | 819 | Cc1ccc(N2CC(c3noc(-c4ccccc4)n3)CC2=O)cc1 (stereo not given)
82 | 780 | CCn1cnc2ccc(-c3noc(-c4ccc(OC)c(F)c4)n3)cc21
83 | 740 | O=C1NC2(CCN(C(=O)NCc3ccc(F)cc3)CC2)Nc2cc(Cl)ccc21
84 | 929 | Cc1cc(C)n(-c2ccc(C(=O)NCc3ccc(F)cc3F)cn2)n1
85 | 936 | O=C(CC1CCCCC1)N1CCN(c2cc(-c3ccc(Cl)cc3)[nH]n2)CC1
86 | 830 | O=C(CS(=O)Cc1cnn(-c2ccccc2)c1-n1cccc1)NCc1cccc(Br)c1 (stereo not given)
87 | 674 | CN(C)C(=O)c1nc2ccccn2c1-c1ccc(Cl)cc1
88 | 964 | O=S1(=O)CCN(c2ccccc2CC(c2c[nH]c3ccccc23)c2c[nH]c3ccccc23)CC1
89 | 624 | CCN1CCN(CC2CCN(S(=O)(=O)c3ccc4c(c3)CCC4)CC2)CC1
90 | 709 | COCCNC(=O)c1nn(-c2ccc(Cl)cc2)c2c(=O)n(C)cnc12
